± gives the expanded uncertainty stated by the source.
Assay: xn = mol fraction of the nth substance listed
Details: 101 kPa, Liquid, Vibrating tube method

NC=O [formamide] + O
Details | mass density [kg/m3]
274.15 K, x1 = 0.00244 | 1001.03 ± 0.044
274.15 K, x1 = 0.00515 | 1002.28 ± 0.045
274.15 K, x1 = 0.0086 | 1003.85 ± 0.046
274.15 K, x1 = 0.02032 | 1009 ± 0.048
274.15 K, x1 = 0.03478 | 1014.99 ± 0.052
274.15 K, x1 = 0.04976 | 1020.81 ± 0.055
274.15 K, x1 = 0.06674 | 1026.93 ± 0.058
274.15 K, x1 = 0.08229 | 1032.24 ± 0.061
274.15 K, x1 = 0.1171 | 1043.06 ± 0.071
275.15 K, x1 = 0.00244 | 1001.06 ± 0.044
275.15 K, x1 = 0.00515 | 1002.29 ± 0.045
275.15 K, x1 = 0.0086 | 1003.84 ± 0.045
275.15 K, x1 = 0.02032 | 1008.93 ± 0.048
275.15 K, x1 = 0.03478 | 1014.85 ± 0.052
275.15 K, x1 = 0.04976 | 1020.62 ± 0.055
275.15 K, x1 = 0.06674 | 1026.67 ± 0.058
275.15 K, x1 = 0.08229 | 1031.93 ± 0.061
275.15 K, x1 = 0.1171 | 1042.67 ± 0.07
276.15 K, x1 = 0.00244 | 1001.07 ± 0.044
276.15 K, x1 = 0.00515 | 1002.28 ± 0.045
276.15 K, x1 = 0.0086 | 1003.81 ± 0.045
276.15 K, x1 = 0.02032 | 1008.85 ± 0.048
276.15 K, x1 = 0.03478 | 1014.7 ± 0.051
276.15 K, x1 = 0.04976 | 1020.4 ± 0.055
276.15 K, x1 = 0.06674 | 1026.42 ± 0.058
276.15 K, x1 = 0.08229 | 1031.63 ± 0.061
276.15 K, x1 = 0.1171 | 1042.28 ± 0.07
277.15 K, x1 = 0.00244 | 1001.06 ± 0.044
277.15 K, x1 = 0.00515 | 1002.26 ± 0.045
277.15 K, x1 = 0.0086 | 1003.77 ± 0.045
277.15 K, x1 = 0.02032 | 1008.75 ± 0.048
277.15 K, x1 = 0.03478 | 1014.54 ± 0.051
277.15 K, x1 = 0.04976 | 1020.19 ± 0.055
277.15 K, x1 = 0.06674 | 1026.14 ± 0.058
277.15 K, x1 = 0.08229 | 1031.3 ± 0.061
277.15 K, x1 = 0.1171 | 1041.88 ± 0.07
278.15 K, x1 = 0.00244 | 1001.04 ± 0.044
278.15 K, x1 = 0.00515 | 1002.23 ± 0.045
278.15 K, x1 = 0.0086 | 1003.72 ± 0.045
278.15 K, x1 = 0.02032 | 1008.64 ± 0.048
278.15 K, x1 = 0.03478 | 1014.37 ± 0.051
278.15 K, x1 = 0.04976 | 1019.96 ± 0.055
278.15 K, x1 = 0.06674 | 1025.86 ± 0.058
278.15 K, x1 = 0.08229 | 1030.99 ± 0.061
278.15 K, x1 = 0.1171 | 1041.47 ± 0.069
278.15 K, x1 = 0.1745 | 1056.3 ± 0.078
278.15 K, x1 = 0.2169 | 1065.71 ± 0.085
278.15 K, x1 = 0.2557 | 1073.39 ± 0.09
278.15 K, x1 = 0.3026 | 1081.73 ± 0.097
278.15 K, x1 = 0.351 | 1089.33 ± 0.1
278.15 K, x1 = 0.4027 | 1096.66 ± 0.11
278.15 K, x1 = 0.4487 | 1102.5 ± 0.12
278.15 K, x1 = 0.4886 | 1107.05 ± 0.12
278.15 K, x1 = 0.5601 | 1114.6 ± 0.13
278.15 K, x1 = 0.5916 | 1117.67 ± 0.14
278.15 K, x1 = 0.6674 | 1124.31 ± 0.15
278.15 K, x1 = 0.7066 | 1127.46 ± 0.15
278.15 K, x1 = 0.7495 | 1130.64 ± 0.16
278.15 K, x1 = 0.7931 | 1133.73 ± 0.17
278.15 K, x1 = 0.8601 | 1138.23 ± 0.17
278.15 K, x1 = 0.8996 | 1140.73 ± 0.18
278.15 K, x1 = 0.948 | 1143.61 ± 0.19
278.15 K, x1 = 0.9753 | 1145.18 ± 0.19
278.15 K, x1 = 0.9847 | 1145.72 ± 0.2
278.15 K, x1 = 0.9897 | 1146.01 ± 0.2
278.15 K, x1 = 0.9959 | 1146.38 ± 0.21
278.15 K, x1 = 1 | 1146.62 ± 0.2
279.15 K, x1 = 0.00244 | 1001 ± 0.044
279.15 K, x1 = 0.00515 | 1002.18 ± 0.045
279.15 K, x1 = 0.0086 | 1003.65 ± 0.045
279.15 K, x1 = 0.02032 | 1008.52 ± 0.048
279.15 K, x1 = 0.03478 | 1014.19 ± 0.051
279.15 K, x1 = 0.04976 | 1019.74 ± 0.054
279.15 K, x1 = 0.06674 | 1025.57 ± 0.058
279.15 K, x1 = 0.08229 | 1030.68 ± 0.061
279.15 K, x1 = 0.1171 | 1041.07 ± 0.069
280.15 K, x1 = 0.00244 | 1000.95 ± 0.044
280.15 K, x1 = 0.00515 | 1002.11 ± 0.045
280.15 K, x1 = 0.0086 | 1003.57 ± 0.045
280.15 K, x1 = 0.02032 | 1008.39 ± 0.048
280.15 K, x1 = 0.03478 | 1014 ± 0.051
280.15 K, x1 = 0.04976 | 1019.49 ± 0.054
280.15 K, x1 = 0.06674 | 1025.28 ± 0.058
280.15 K, x1 = 0.08229 | 1030.32 ± 0.061
280.15 K, x1 = 0.1171 | 1040.65 ± 0.069
281.15 K, x1 = 0.00244 | 1000.89 ± 0.044
281.15 K, x1 = 0.00515 | 1002.04 ± 0.044
281.15 K, x1 = 0.0086 | 1003.47 ± 0.045
281.15 K, x1 = 0.02032 | 1008.25 ± 0.048
281.15 K, x1 = 0.03478 | 1013.8 ± 0.051
281.15 K, x1 = 0.04976 | 1019.23 ± 0.054
281.15 K, x1 = 0.06674 | 1024.97 ± 0.058
281.15 K, x1 = 0.08229 | 1029.97 ± 0.061
281.15 K, x1 = 0.1171 | 1040.23 ± 0.069
282.15 K, x1 = 0.00244 | 1000.81 ± 0.044
282.15 K, x1 = 0.00515 | 1001.94 ± 0.044
282.15 K, x1 = 0.0086 | 1003.37 ± 0.045
282.15 K, x1 = 0.02032 | 1008.09 ± 0.048
282.15 K, x1 = 0.03478 | 1013.58 ± 0.051
282.15 K, x1 = 0.04976 | 1018.97 ± 0.054
282.15 K, x1 = 0.06674 | 1024.66 ± 0.057
282.15 K, x1 = 0.08229 | 1029.6 ± 0.06
282.15 K, x1 = 0.1171 | 1039.81 ± 0.069
283.15 K, x1 = 0.00244 | 1000.72 ± 0.044
283.15 K, x1 = 0.00515 | 1001.84 ± 0.044
283.15 K, x1 = 0.0086 | 1003.25 ± 0.045
283.15 K, x1 = 0.02032 | 1007.94 ± 0.048
283.15 K, x1 = 0.03478 | 1013.36 ± 0.051
283.15 K, x1 = 0.04976 | 1018.7 ± 0.054
283.15 K, x1 = 0.06674 | 1024.35 ± 0.057
283.15 K, x1 = 0.08229 | 1029.24 ± 0.061
283.15 K, x1 = 0.1171 | 1039.36 ± 0.067
288.15 K, x1 = 0.00244 | 1000.07 ± 0.044
288.15 K, x1 = 0.00515 | 1001.13 ± 0.044
288.15 K, x1 = 0.0086 | 1002.47 ± 0.045
288.15 K, x1 = 0.02032 | 1006.89 ± 0.047
288.15 K, x1 = 0.03478 | 1012.11 ± 0.05
288.15 K, x1 = 0.04976 | 1017.23 ± 0.053
288.15 K, x1 = 0.06674 | 1022.65 ± 0.056
288.15 K, x1 = 0.08229 | 1027.38 ± 0.059
288.15 K, x1 = 0.1171 | 1037.14 ± 0.067
288.15 K, x1 = 0.1745 | 1051.09 ± 0.076
288.15 K, x1 = 0.2169 | 1059.95 ± 0.082
288.15 K, x1 = 0.2557 | 1067.27 ± 0.087
288.15 K, x1 = 0.3026 | 1075.25 ± 0.094
288.15 K, x1 = 0.351 | 1082.54 ± 0.1
288.15 K, x1 = 0.4027 | 1089.57 ± 0.11
288.15 K, x1 = 0.4487 | 1095.2 ± 0.11
288.15 K, x1 = 0.4886 | 1099.61 ± 0.12
288.15 K, x1 = 0.5601 | 1106.92 ± 0.13
288.15 K, x1 = 0.5916 | 1109.89 ± 0.13
288.15 K, x1 = 0.6674 | 1116.35 ± 0.14
288.15 K, x1 = 0.7066 | 1119.42 ± 0.15

From the NIST ThermoML archive (doi:10.1021/acs.jced.6b00786)
